This note sets out measurements from patent US9334246B2, “Substituted triazines for malaria treatment and chemoprophylaxis” (The United States of America, as represented by the …, priority 2013, dated 2016).

Assay type in all cases: cell-based, Plasmodium falciparum
Holding throughout (conditions): SYBR Green Assay

One assay has as its system P. falciparum D6. Briefly: Malaria SYBR Green Fluorescence Assay, D6 strain.
The test system of another assay is P. falciparum W2. Briefly: Malaria SYBR Green Fluorescence Assay, W2 strain.
In a further assay the test system is P. falciparum C235. Briefly: Malaria SYBR Green Fluorescence Assay, C235 strain.

Molecules are shown by their SMILES.

Turning to `CCN1CCCC(Nc2nc(-c3ccccc3OC)nc(C(Cl)(Cl)Cl)n2)C1` (stereo not drawn) [Cmpd 215], the D6 with P. falciparum D6 stood at 426 ng/mL. For the same compound, the W2 with P. falciparum W2 turned out to be 132 ng/mL. The compound further registered a C235 with P. falciparum C235 of 248 ng/mL.
The matching figures for `COc1ccccc1-c1nc(N2CCCNCC2)nc(C(Cl)(Cl)Cl)n1` [Cmpd 218]: 104 ng/mL, 38 ng/mL and 73 ng/mL.
In turn, `ClC(Cl)(Cl)c1nc(NCCc2ccncc2)nc(-c2ccc3ccccc3c2)n1` [Cmpd 230] came in with a D6 in the assay on P. falciparum D6 of 246 ng/mL. Also, in the assay on P. falciparum W2, the W2 amounted to 59 ng/mL. The same compound had a C235 in the assay with P. falciparum C235 of 212 ng/mL.
The compound `COc1cccc(-c2nc(NCCC3CCCN3C)nc(C(Cl)(Cl)Cl)n2)c1` (stereo not drawn) [Cmpd 236] came in with a D6 in the assay on P. falciparum D6 of 52 ng/mL. Moreover, the W2 in the assay on P. falciparum W2 stood at 50 ng/mL. The compound further gave a C235 in the assay on P. falciparum C235 of 60 ng/mL.
Turning to `CN1CCN(c2nc(-c3ccccc3)nc(C(Cl)(Cl)Cl)n2)CC1` [Cmpd 239], in the assay on P. falciparum D6, the D6 is reported as 192 ng/mL. In addition, the W2 in the assay on P. falciparum W2 is 125 ng/mL. For the same compound, the C235 in the assay with P. falciparum C235 worked out at 158 ng/mL.
For `CCN(CC)CCNc1nc(Cc2cccc(OC)c2)nc(C(Cl)(Cl)Cl)n1` [Cmpd 243] the same measures were 199 ng/mL, 123 ng/mL and 128 ng/mL.
For `CC(C)(C)c1ccc(-c2nc(NCCN3CCCC3)nc(C(Cl)(Cl)Cl)n2)cc1` [Cmpd 246] the same measures were 48 ng/mL, 59 ng/mL and 35 ng/mL.
In turn, `CCN(CC)CCNc1nc(-c2ccccc2-c2ccc(C)cc2)nc(C(Cl)(Cl)Cl)n1` [Cmpd 254] yielded a D6 in the assay with P. falciparum D6 of 632 ng/mL. In the assay on P. falciparum W2, the W2 worked out at 492 ng/mL. Also, in the assay on P. falciparum C235, the C235 amounted to 462 ng/mL.
For `CCN1CCC(CNc2nc(-c3ccc(Cl)c(Cl)c3)nc(C(Cl)(Cl)Cl)n2)CC1` [Cmpd 257] the same measures were 54 ng/mL, 45 ng/mL and 29 ng/mL.
In the assay with P. falciparum D6, `CCN1CCC(CNc2nc(-c3cccc(OC)c3)nc(C(Cl)(Cl)Cl)n2)CC1` [Cmpd 258] showed a D6 of 50 ng/mL. This compound also showed a W2 with P. falciparum W2 of 29 ng/mL. The C235 with P. falciparum C235 turned out to be 26 ng/mL.
The matching figures for `CCN1CCC(CNc2nc(-c3ccccc3-c3ccc(C)cc3)nc(C(Cl)(Cl)Cl)n2)CC1` [Cmpd 259]: 162 ng/mL, 105 ng/mL and 113 ng/mL.
The matching figures for `CCN1CCC(CNc2nc(-c3ccc(C)cc3)nc(C(Cl)(Cl)Cl)n2)CC1` [Cmpd 265]: 803 ng/mL, 714 ng/mL and 672 ng/mL.
`Cc1ccc(-c2ccccc2-c2nc(NCCN3CCCC3)nc(C(Cl)(Cl)Cl)n2)cc1` [Cmpd 266]: in the assay on P. falciparum D6, the D6 was found to be 654 ng/mL. Further, in the assay with P. falciparum W2, the W2 turned out to be 474 ng/mL. For the same compound, in the assay on P. falciparum C235, the C235 turned out to be 530 ng/mL.
The matching figures for `CCN(CC)CCNc1nc(-c2ccc(OC)cc2)nc(C(Cl)(Cl)Cl)n1` [Cmpd 268]: 309 ng/mL, 259 ng/mL and 282 ng/mL.
For `COc1cccc(Cc2nc(N3CCCN(C)CC3)nc(C(Cl)(Cl)Cl)n2)c1` [Cmpd 269] the same measures were 835 ng/mL, 286 ng/mL and 627 ng/mL.
In turn, `CSc1ccc(-c2nc(NC(C)(C)CN)nc(C(Cl)(Cl)Cl)n2)cc1` [Cmpd 277] registered a D6 in the assay with P. falciparum D6 of 406 ng/mL. For the same compound, in the assay on P. falciparum W2, the W2 is on record as 364 ng/mL. In the assay with P. falciparum C235, this compound had a C235 of 312 ng/mL.
The matching figures for `COc1ccc(-c2nc(NCCN3CCCC3)nc(C(Cl)(Cl)Cl)n2)c2ccccc12` [Cmpd 278]: 35 ng/mL, 17 ng/mL and 48 ng/mL.
For `CCN1CCC(CNc2nc(-c3ccc(OC)c4ccccc34)nc(C(Cl)(Cl)Cl)n2)CC1` [Cmpd 279] the same measures were 66 ng/mL, 20 ng/mL and 77 ng/mL.
`CCN1CCCC(Nc2nc(-c3ccc(OC)c4ccccc34)nc(C(Cl)(Cl)Cl)n2)C1` (stereo not drawn) [Cmpd 280]: the D6 in the assay with P. falciparum D6 turned out to be 138 ng/mL. The compound also came in with a W2 with P. falciparum W2 of 76 ng/mL. In the assay with P. falciparum C235, this compound yielded a C235 of 193 ng/mL.
In the assay on P. falciparum D6, `COc1ccc(-c2nc(N3CCCNCC3)nc(C(Cl)(Cl)Cl)n2)c2ccccc12` [Cmpd 281] gave a D6 of 148 ng/mL. The W2 in the assay on P. falciparum W2 is listed as 66 ng/mL. This compound also yielded a C235 in the assay on P. falciparum C235 of 205 ng/mL.
The matching figures for `CC(C)(N)CNc1nc(-c2ccc(Cl)cc2)nc(C(Cl)(Cl)Cl)n1` [Cmpd 284]: 12 ng/mL, 3 ng/mL and 18 ng/mL.
For `CCN(CC)CCNc1nc(-c2ccc(Cl)cc2)nc(C(Cl)(Cl)Cl)n1` [Cmpd 286] the same measures were 5 ng/mL, 2 ng/mL and 10 ng/mL.
The matching figures for `CN1CCCN(c2nc(-c3ccc(Cl)cc3)nc(C(Cl)(Cl)Cl)n2)CC1` [Cmpd 287]: 143 ng/mL, 60 ng/mL and 232 ng/mL.
Regarding `COc1ccccc1Cc1nc(NCC(C)(C)N)nc(C(Cl)(Cl)Cl)n1` [Cmpd 292], in the assay with P. falciparum D6, the D6 is listed as 77 ng/mL. Moreover, in the assay on P. falciparum W2, the W2 was determined as 34 ng/mL. In addition, the C235 in the assay on P. falciparum C235 amounted to 103 ng/mL.
`CCN1CCC(CNc2nc(Cc3ccccc3OC)nc(C(Cl)(Cl)Cl)n2)CC1` [Cmpd 293] showed a D6 with P. falciparum D6 of 48 ng/mL. This compound came in with a W2 with P. falciparum W2 of 13 ng/mL. Further, the C235 in the assay on P. falciparum C235 is listed as 70 ng/mL.
`CN1CCCC1CCNc1nc(Nc2ccc(OC(F)(F)F)cc2)nc(C(Cl)(Cl)Cl)n1` (stereo not drawn) [Cmpd 295] showed a D6 in the assay with P. falciparum D6 of 10 ng/mL. In the assay with P. falciparum W2, the W2 is 10 ng/mL. Besides, the C235 in the assay on P. falciparum C235 came to 23 ng/mL.
Consider `CC(C)(N)CNc1nc(Nc2ccc(OC(F)(F)F)cc2)nc(C(Cl)(Cl)Cl)n1` [Cmpd 296], for which the D6 in the assay with P. falciparum D6 came to 302 ng/mL. The compound further showed a W2 in the assay on P. falciparum W2 of 318 ng/mL. Moreover, the C235 in the assay on P. falciparum C235 was found to be 460 ng/mL.
`Cc1ccc(-c2ccccc2-c2nc(NCc3ccncc3)nc(C(Cl)(Cl)Cl)n2)cc1` [Cmpd 299] registered a D6 in the assay with P. falciparum D6 of 195 ng/mL. Further, the W2 with P. falciparum W2 was found to be 148 ng/mL. For the same compound, in the assay with P. falciparum C235, the C235 was 311 ng/mL.
For `OCCN1CCN(c2nc(Nc3ccc(OC(F)(F)F)cc3)nc(C(Cl)(Cl)Cl)n2)CC1` [Cmpd 302] the same measures were 166 ng/mL, 107 ng/mL and 299 ng/mL.
The matching figures for `NC1(CNc2nc(Nc3ccc(OC(F)(F)F)cc3)nc(C(Cl)(Cl)Cl)n2)CCOCC1` [Cmpd 303]: 43 ng/mL, 61 ng/mL and 65 ng/mL.
The matching figures for `OCCN1CCN(c2nc(-c3ccc(Cl)c(Cl)c3)nc(C(Cl)(Cl)Cl)n2)CC1` [Cmpd 304]: 80 ng/mL, 41 ng/mL and 201 ng/mL.
The compound `OCCN1CCN(c2nc(-c3ccc4ccccc4c3)nc(C(Cl)(Cl)Cl)n2)CC1` [Cmpd 305] gave a D6 in the assay on P. falciparum D6 of 35 ng/mL. Also, the W2 in the assay with P. falciparum W2 is listed as 23 ng/mL. In the assay on P. falciparum C235, this compound gave a C235 of 68 ng/mL.
Take `OCCN1CCN(c2nc(-c3ccc(-c4ccccc4)cc3)nc(C(Cl)(Cl)Cl)n2)CC1` [Cmpd 308]: in the assay on P. falciparum D6, the D6 is on record as 52 ng/mL. In the assay with P. falciparum W2, the W2 amounted to 24 ng/mL. Moreover, in the assay on P. falciparum C235, the C235 is reported as 126 ng/mL.
For `CSc1ccc(-c2nc(N3CCN(CCO)CC3)nc(C(Cl)(Cl)Cl)n2)cc1` [Cmpd 309] the same measures were 188 ng/mL, 122 ng/mL and 438 ng/mL.
The matching figures for `NC1(CNc2nc(-c3ccc(C(Cl)(Cl)Cl)cc3)nc(C(Cl)(Cl)Cl)n2)CCOCC1` [Cmpd 311]: 81 ng/mL, 47 ng/mL and 169 ng/mL.
Take `COc1ccc(-c2nc(NCC3(N)CCOCC3)nc(C(Cl)(Cl)Cl)n2)cc1OC` [Cmpd 319]: the D6 in the assay on P. falciparum D6 was determined as 16 ng/mL. Also, in the assay on P. falciparum W2, the W2 came out at 10 ng/mL. The C235 in the assay on P. falciparum C235 amounted to 34 ng/mL.
As for `CSc1ccc(-c2nc(NC3CC(C)(C)NC(C)(C)C3)nc(C(Cl)(Cl)Cl)n2)cc1` [Cmpd 323], in the assay with P. falciparum D6, the D6 is given as 20 ng/mL. In the assay with P. falciparum W2, this compound gave a W2 of 17 ng/mL. Moreover, the C235 in the assay on P. falciparum C235 amounted to 51 ng/mL.
`CC1(C)CC(Nc2nc(-c3ccc(C(Cl)(Cl)Cl)cc3)nc(C(Cl)(Cl)Cl)n2)CC(C)(C)N1` [Cmpd 325] had a D6 with P. falciparum D6 of 123 ng/mL. In the assay on P. falciparum W2, this compound yielded a W2 of 82 ng/mL. Besides, the C235 in the assay on P. falciparum C235 is on record as 269 ng/mL.
In turn, `NC1(CNc2nc(-c3ccc(Cl)cc3)nc(C(Cl)(Cl)Cl)n2)CCOCC1` [Cmpd 333] displayed a D6 in the assay on P. falciparum D6 of 26 ng/mL. The W2 in the assay with P. falciparum W2 is 15 ng/mL. Moreover, the C235 in the assay on P. falciparum C235 is 40 ng/mL.
The matching figures for `Clc1cccc(-c2nc(NCCN3CCCC3)nc(C(Cl)(Cl)Cl)n2)c1` [Cmpd 334]: 9 ng/mL, 2 ng/mL and 15 ng/mL.
For `CCN1CCC(CNc2nc(-c3cccc(Cl)c3)nc(C(Cl)(Cl)Cl)n2)CC1` [Cmpd 339] the same measures were 34 ng/mL, 14 ng/mL and 41 ng/mL.
`COc1ccc(Nc2nc(NCCC3CCCN3C)nc(C(Cl)(Cl)Cl)n2)cn1` (stereo not drawn) [Cmpd 341] displayed a D6 in the assay on P. falciparum D6 of 7 ng/mL. Also, the W2 with P. falciparum W2 came out at 5 ng/mL. Besides, the C235 in the assay with P. falciparum C235 is 10 ng/mL.
As to `CCN(CC)CCNc1nc(Nc2ccc(OC)nc2)nc(C(Cl)(Cl)Cl)n1` [Cmpd 342], in the assay with P. falciparum D6, the D6 stood at 335 ng/mL. Further, the W2 in the assay with P. falciparum W2 came to 149 ng/mL. Besides, the C235 in the assay on P. falciparum C235 is reported as 398 ng/mL.
For `CCN1CCCC(Nc2nc(Nc3ccc(OC)nc3)nc(C(Cl)(Cl)Cl)n2)C1` (stereo not drawn) [Cmpd 344] the same measures were 80 ng/mL, 34 ng/mL and 98 ng/mL.
Consider `COc1ccc(Nc2nc(N3CCN(C)CC3)nc(C(Cl)(Cl)Cl)n2)cn1` [Cmpd 345], for which the D6 in the assay with P. falciparum D6 is 267 ng/mL. In the assay with P. falciparum W2, the W2 is listed as 199 ng/mL. In the assay with P. falciparum C235, this compound gave a C235 of 1100 ng/mL.
